Data reported in US20060252073A1, “Compositions and methods for the treatment of cancer” (Regents of the University of Michigan, priority 2005, published 2006).
“And” between values parts separate entries of the source, which are not always exact repeats. Equal values may be shown once.

Key:
Pten^fl/flMx-1-Cre mice = assay: Rapamycin given immediately after Pten deletion (pIpC) in Pten fl/fl Mx-1-Cre mice; type: in vivo; conditions: daily injections for 7 days after pIpC treatment
Protocol: Administration of polyinosine-polycytidine (pIpC) to induce Mx-1-Cre expression. pIpC (Sigma P-0913) was resuspended with DPBS at a concentration of 2 mg/ml and passed through a 0.22 uM filter (See, e.g., Mikkola et al., Nature 421, 54751 (2003)). Mice received 25 ug of pIpC/g of body mass every other day for 2 weeks.
(§1) Administration of Rapamycin.
(§2) Histopathology. Spleen, liver, and thymus samples were fixed in 10% neutral buffered formalin and paraffin embedded. Thin sections (5 μm) were cut on a microtome and stained with hematoxylin and eosin using standard protocols. Chloroacetate esterase staining was performed using a Leder stain kit (Sigma).
All 3 such mice in this experiment died within 3-4 weeks of pIpC treatment, with AML and ALL (FIG. 9c).

[1] = system: established leukemias (AML and ALL); assay: Rapamycin against established leukemias in mice transplanted with Pten fl/fl Mx-1-Cre bone marrow cells, starting 15 weeks after pIpC; type: in vivo; conditions: daily 4 mg/kg from 15 weeks after pIpC
Protocol: as §1, §2
To test if rapamycin was effective against established leukemias, mice that had been transplanted with Pten^fl/fl Mx-1-Cre bone marrow cells were treated with daily injections of vehicle or rapamycin, beginning 15 weeks after pIpC.
Mice that had been transplanted with 1×10^6 Pten^fl/fl Mx-1-Cre donor (CD45.2^+) bone marrow cells along with 0.5×10^6 control (CD45.1^+) bone marrow cells were treated with daily injections of vehicle or rapamycin (4 mg/kg), starting 15 weeks after pIpC treatment.

[2] = system: Flk2^−Sca-1^+Lin^−c-kit^+CD48^− cells (HSCs); conditions: mouse, in vivo
From the text: Flow cytometry and the isolation of hematopoietic stem cells (HSCs). Bone marrow cells were flushed from long bones with Hank's buffered salt solution without calcium or magnesium, supplemented with 2% heat-inactivated calf serum (GIBCO, Grand Island, N.Y.; HBSS^+). Cells were triturated and filtered through a nylon screen (45 μm, Sefar America, Kansas City, Mo.) to obtain a single cell suspension. Flk2^−Sca-1^+ Lineage^− c-kit^+ CD48^− HSCs and Thy1.1^low Sca-1^+ Mac-1^low CD4^low B220 MPPs were isolated as previously described (See, e.g., Christensen and Weissman, Proc Natl Acad Sci USA 98, 14541-6 (2001); Kiel et al., Cell 121, 1109-21 (2005); Morrison and Weissman, Immunity 1, 661-673 (1994)). For isolation of Flk2^−Sca-1^+ Lineage c-kit^+ CD48^− HSCs, whole bone marrow cells were incubated with unconjugated monoclonal antibodies to lineage markers including B220 (6B2), CD3 (KT31.1), CD4 (GK1.5), CD5 (53-7.3), CD8 (53-6.7), Gr-1 (8C5), Mac-1 (M1/70) and Terl19. Following dilution, pelleted cells were resuspended in anti-rat IgG-specific F(ab)2 conjugated to phycoerythrin (PE; Jackson ImmunoResearch, West Grove, Pa.). […] When CD45.2^+ HSCs were analyzed, CD45.2 (104-FITC; BD PharMingen) and CD48 (HM48-1-PE, eBioscience) were used. […]
Cell cycle analysis. BrdU incorporation was measured by flow-cytometry (BD PharMingen). […]

For `CO[C@H]1C[C@@H]2CC[C@@H](C)[C@@](O)(O2)C(=O)C(=O)N2CCCC[C@H]2C(=O)O[C@H]([C@H](C)C[C@@H]2CC[C@@H](O)[C@H](OC)C2)CC(=O)[C@H](C)/C=C(\C)[C@@H](O)[C@@H](OC)C(=O)[C@H](C)C[C@H](C)/C=C/C=C/C=C/1C` [Rapamycin], the “bone marrow and spleen cellularity in control mice” value (Pten^fl/flMx-1-Cre mice) was “without significantly affecting”, the “Bone marrow HSCs that were donor type, average” value ([1]; average of 3 mice) was 39 ± 6% and the “Bone marrow HSCs that were donor type” value ([1]; individual mice, Pten-deficient donor (CD45.2+) HSCs, 4 mg/kg) was 35% and 45% and 36%. The “HSC numbers in control mice” value [2] was “without affecting” and the “proliferation of HSCs from control littermates” value [2] was “without affecting”.
